Data as given in patent publication US6239171A, “Tocotrienols and tocotrienol-like compounds and methods for their use” (Lipogenics, Inc., priority 1998, dated 2001).

How the values were obtained:
[1] = tested on: hypercholesterolemic swine; experiment: Plasma thromboxane B2 and platelet factor 4 in hypercholesterolemic swine; type: in vivo; conditions: control diet + 50 ppm, 42 days
From the text: All assays conducted on chicken or swine serum were done following the protocols described in A. A. Qureshi et al., "Lowering Of Serum Cholesterol In Hypercholesterolemic Humans By Tocotrienols" (Palmvitee), Am. J. Clin. Nutr., 53, pp. 1021S-26S (1991). All enzymatic assays were done following the protocols described in A. A. Qureshi et al., "Effects of Cereals and Culture Filtrate of Trichoderma viride on Lipid Metabolism of Swine", Lipids, 17, pp. 924 (1982). Plasma insulin, glucagon and TNF levels were measured using radioinnumoassay kits from Ventrex Laboratories, Inc. (Portland, Me.), ICN Biomedicals, Inc. (Costa Mesa, Calif.) and Genzyme Corp. (Cambridge, Mass.), respectively.
(§1) Each group of three 5-month old swine was administered either a control diet or a control diet supplemented with 50 ppm of TRF or 50 ppm of an individual tocotrienol. The samples were prepared as described in Example 11. After a 12 hour fast, serum and plasma samples were taken a 0 hrs, 21 days and 42 days from the start of the feeding period. After taking serum and plasma samples from the pigs at the end of the 42 day period, all of the swine were fasted for a total of 40 hours, followed by a 48 hour refeeding period. One swine from each group was sacrificed at that time and the liver, intestine, lung, heart, loin muscle, adipose tissue and ham muscle were removed.
This example was conducted to measure the serum levels of apolipoprotein (a)1, apolipoprotein B, triglycerides, glucose, insulin and glucagon and the plasma levels of thromboxane B2 and platelet factor 4 in the swine described in Example 15.

[2] = tested on: hypercholesterolemic swine; experiment: Serum cholesterol, apolipoproteins, triglycerides, glucose, insulin and glucagon in hypercholesterolemic swine; type: in vivo
Method: All assays conducted on chicken or swine serum were done following the protocols described in A. A. Qureshi et al., "Lowering Of Serum Cholesterol In Hypercholesterolemic Humans By Tocotrienols" (Palmvitee), Am. […] Plasma insulin, glucagon and TNF levels were measured using radioinnumoassay kits from Ventrex Laboratories, Inc. (Portland, Me.), ICN Biomedicals, Inc. (Costa Mesa, Calif.) and Genzyme Corp. (Cambridge, Mass.), respectively.
We next measured the effects of various tocotrienols from rice bran on HMG-CoA reductase and cholesterol 7α-hydroxylase in hypercholesterolemic swine. Since pigs are very similar to humans in their cholesterol metabolism, they provide a useful model from which to study hypercholesterolemia and related diseases. […] As a result, the pigs develop complicated atherosclerotic plaques that closely resemble advanced atherosclerotic lesions found in humans.
as §1, with “The samples were prepared as described in Example 11.” left out
The experimental conditions were the same, except that the two remaining swine in each group were transferred to the unsupplemented control diet following the 42 day feeding period. After an additional 70 days, serum and plasma samples were collected from these swine after a 12 hour fast for testing.

[3] = tested on: hypercholesterolemic swine; experiment: Total cholesterol, triglyceride and glucose concentrations in tissues of hypercholesterolemic swine; type: in vivo; conditions: control diet + 50 ppm, 42 days
Method: as §1, with “The samples were prepared as described in Example 11.” left out
We next determined the effect of tocotrienols on the total cholesterol, triglyceride and glucose concentrations in various tissues of hypercholesterolemic swine.

[4] = tested on: cholesterol 7α-hydroxylase; experiment: Hepatic cholesterol 7α-hydroxylase activity in chickens fed supplemented diets; type: in vivo, chicken; conditions: control diet + 50 ppm, 4 weeks
Method: This example measured the effects of the TRF and its components on the hepatic enzymatic activity of HMG-CoA reductase and cholesterol 7α-hydroxylase. […] The amount of feed consumed ranged from 11.19-11.60 g per chicken and the feeding period was 4 weeks. The birds were fasted for a period of 36 hours and refed for 48 hours prior to sacrifice (at 0800 hours).

[5] = 70 days on control diet after 42 days at 50 ppm

CC(C)=CCC/C(C)=C/CC/C(C)=C/CCC1(C)CCc2cc(O)ccc2O1 (stereo not drawn) [P21, 3,4-dihydro-2-methyl-2-(4,8,12-trimethyltrideca-3' (E),7'(E),11'-trienyl)-2H-1-benzopyran-6-ol]
Platelet Factor 4, percentage of control [1]: 82.59%
Thromboxane B2 [1]: 60.48 pg/100 ml
Thromboxane B2, percentage of control [1]: 87.66%
HDL-CHOLESTEROL CONCENTRATION IN SERUM [2, 5]: 31.15 mg/100 ml
HDL-CHOLESTEROL, Percentage of Control Activity [2, 5]: 103.50%
HDL-CHOLESTEROL, percentage of baseline value [2, 5]: 135.72%
HDL:LDL CHOLESTEROL, Percentage of Control Activity [2, 5]: 83.83%
LDL-CHOLESTEROL CONCENTRATION IN SERUM [2, 5]: 227.82 mg/100 ml
LDL-CHOLESTEROL, Percentage of Control Activity [2, 5]: 88.02%
LDL-CHOLESTEROL, percentage of baseline value [2, 5]: 125.11%
TOTAL CHOLESTEROL CONCENTRATION IN SERUM [2, 5]: 276.23 mg/100 ml
TOTAL CHOLESTEROL, Percentage of Control Activity [2, 5]: 76.20%
TOTAL CHOLESTEROL, percentage of baseline value [2, 5]: 125.39%
Apo A1, percentage of control ([2]; control diet + 50 ppm, 6 weeks): 104.01%
Apo A1 concentration in serum ([2]; control diet + 50 ppm, 6 weeks): 26.72 ± 1.14 mg/100 ml
Apo B concentration in serum ([2]; control diet + 50 ppm, 6 weeks): 111.78 ± 1.80 mg/100 ml
Apo B, percentage of control ([2]; control diet + 50 ppm, 6 weeks): 75.64%
Triglycerides concentration in serum ([2]; control diet + 50 ppm, 6 weeks): 64.44 mg/100 ml
Triglycerides, percentage of control ([2]; control diet + 50 ppm, 6 weeks): 84.17%
HDL-CHOLESTEROL CONCENTRATION IN SERUM ([2]; control diet + 50 ppm, 21 days): 26.23 mg/100 ml
HDL-CHOLESTEROL, percentage of baseline value ([2]; control diet + 50 ppm, 21 days): 114.29%
HDL:LDL CHOLESTEROL, percentage of baseline value ([2]; control diet + 50 ppm, 21 days): 93.32%
LDL-CHOLESTEROL CONCENTRATION IN SERUM ([2]; control diet + 50 ppm, 21 days): 194.17 mg/100 ml
LDL-CHOLESTEROL, percentage of baseline value ([2]; control diet + 50 ppm, 21 days): 106.63%
TOTAL CHOLESTEROL CONCENTRATION IN SERUM ([2]; control diet + 50 ppm, 21 days): 236.40 mg/100 ml
TOTAL CHOLESTEROL, percentage of baseline value ([2]; control diet + 50 ppm, 21 days): 107.20%
Glucagon ([2]; control diet + 50 ppm, 42 days): 278.36 pg/mL
Glucagon, percentage of control ([2]; control diet + 50 ppm, 42 days): 84.25%
Glucose ([2]; control diet + 50 ppm, 42 days): 72.63 mg/100 ml
Glucose, percentage of control ([2]; control diet + 50 ppm, 42 days): 75.66%
HDL-CHOLESTEROL CONCENTRATION IN SERUM ([2]; control diet + 50 ppm, 42 days): 30.74 mg/100 ml
HDL-CHOLESTEROL, Percentage of Control Activity ([2]; control diet + 50 ppm, 42 days): 113.90%
HDL-CHOLESTEROL, percentage of baseline value ([2]; control diet + 50 ppm, 42 days): 133.94%
HDL:LDL CHOLESTEROL, Percentage of Control Activity ([2]; control diet + 50 ppm, 42 days): 57.82%
HDL:LDL CHOLESTEROL, percentage of baseline value ([2]; control diet + 50 ppm, 42 days): 81.59%
Insulin ([2]; control diet + 50 ppm, 42 days): 21.4 µU/mL
Insulin, percentage of control ([2]; control diet + 50 ppm, 42 days): 104.63%
LDL-CHOLESTEROL CONCENTRATION IN SERUM ([2]; control diet + 50 ppm, 42 days): 198.76 mg/100 ml
LDL-CHOLESTEROL, Percentage of Control Activity ([2]; control diet + 50 ppm, 42 days): 66.53%
LDL-CHOLESTEROL, percentage of baseline value ([2]; control diet + 50 ppm, 42 days): 109.15%
TOTAL CHOLESTEROL CONCENTRATION IN SERUM ([2]; control diet + 50 ppm, 42 days): 238.17 mg/100 ml
TOTAL CHOLESTEROL, Percentage of Control Activity ([2]; control diet + 50 ppm, 42 days): 68.90%
TOTAL CHOLESTEROL, percentage of baseline value ([2]; control diet + 50 ppm, 42 days): 108.20%
TOTAL CHOLESTEROL CONCENTRATION, Adipose Tissue [3]: 89.85 mg/100 gm
TOTAL CHOLESTEROL CONCENTRATION, Ham Muscle [3]: 79.51 mg/100 gm
TOTAL CHOLESTEROL CONCENTRATION, Heart [3]: 53.63 mg/100 gm
TOTAL CHOLESTEROL CONCENTRATION, Intestine [3]: 180.59 mg/100 gm
TOTAL CHOLESTEROL CONCENTRATION, Liver [3]: 136.70 mg/100 gm
TOTAL CHOLESTEROL CONCENTRATION, Loin Muscle [3]: 100.58 mg/100 gm
TOTAL CHOLESTEROL CONCENTRATION, Lung [3]: 75.68 mg/100 gm
TOTAL CHOLESTEROL, Adipose Tissue, percentage of control [3]: 82.13%
TOTAL CHOLESTEROL, Ham Muscle, percentage of control [3]: 79.51%
TOTAL CHOLESTEROL, Heart, percentage of control [3]: 83.13%
TOTAL CHOLESTEROL, Intestine, percentage of control [3]: 83.80%
TOTAL CHOLESTEROL, Liver, percentage of control [3]: 67.81%
TOTAL CHOLESTEROL, Loin Muscle, percentage of control [3]: 84.09%
TOTAL CHOLESTEROL, Lung, percentage of control [3]: 74.39%
TOTAL GLUCOSE CONCENTRATION, Adipose Tissue [3]: 16.67 mg/100 gm
TOTAL GLUCOSE CONCENTRATION, Ham Muscle [3]: 54.01 mg/100 gm
TOTAL GLUCOSE CONCENTRATION, Heart [3]: 44.17 mg/100 gm
TOTAL GLUCOSE CONCENTRATION, Intestine [3]: 62.50 mg/100 gm
TOTAL GLUCOSE CONCENTRATION, Liver [3]: 374.22 mg/100 gm
TOTAL GLUCOSE CONCENTRATION, Loin Muscle [3]: 55.45 mg/100 gm
TOTAL GLUCOSE CONCENTRATION, Lung [3]: 61.92 mg/100 gm
TOTAL GLUCOSE, Adipose Tissue, percentage of control [3]: 90.89%
TOTAL GLUCOSE, Ham Muscle, percentage of control [3]: 100.35%
TOTAL GLUCOSE, Heart, percentage of control [3]: 89.69%
TOTAL GLUCOSE, Intestine, percentage of control [3]: 86.84%
TOTAL GLUCOSE, Liver, percentage of control [3]: 92.35%
TOTAL GLUCOSE, Loin Muscle, percentage of control [3]: 77.84%
TOTAL GLUCOSE, Lung, percentage of control [3]: 92.51%
TOTAL TRIGLYCERIDES CONCENTRATION, Adipose Tissue [3]: 282.82 mg/100 gm
TOTAL TRIGLYCERIDES CONCENTRATION, Ham Muscle [3]: 182.16 mg/100 gm
TOTAL TRIGLYCERIDES CONCENTRATION, Heart [3]: 142.38 mg/100 gm
TOTAL TRIGLYCERIDES CONCENTRATION, Intestine [3]: 347.75 mg/100 gm
TOTAL TRIGLYCERIDES CONCENTRATION, Liver [3]: 386.25 mg/100 gm
TOTAL TRIGLYCERIDES CONCENTRATION, Loin Muscle [3]: 194.75 mg/100 gm
TOTAL TRIGLYCERIDES CONCENTRATION, Lung [3]: 165.47 mg/100 gm
TOTAL TRIGLYCERIDES, Adipose Tissue, percentage of control activity [3]: 64.91%
TOTAL TRIGLYCERIDES, Ham Muscle, percentage of control activity [3]: 98.03%
TOTAL TRIGLYCERIDES, Heart, percentage of control activity [3]: 98.72%
TOTAL TRIGLYCERIDES, Intestine, percentage of control activity [3]: 97.24%
TOTAL TRIGLYCERIDES, Liver, percentage of control activity [3]: 89.96%
TOTAL TRIGLYCERIDES, Loin Muscle, percentage of control activity [3]: 88.65%
TOTAL TRIGLYCERIDES, Lung, percentage of control activity [3]: 96.22%
Cholesterol 7α-Hydroxylase, percentage of control [4]: 112.43%
Cholesterol 7α-hydroxylase [4]: 11.49 nmol/min/mg
